Results from patent publication US7097854B2, “Amino alcohol derivatives, process for their production and pharmaceutical preparations and reagents containing these compounds” (MediGene Oncology GmbH, priority 1996, dated 2006).

Key:
[1] = system: HeLa cells; test: Transfection with pCMV-CAT, CAT-Elisa, HeLa cells; assay type: cell-based, human; settings: relative to DOTAP = 1, pCMV-CAT plasmid
Description: (§1) The testing of DOTAP or the compounds of the invention comprises transfection of the test cells, protein determination by means of the BCA method (Pierce) and carrying out a CAT Elisa and these are described here using DOTAP (Boehringer Mannheim) as an example. After ultrasonication the cationic lipid DOTAP forms unilamellar vesicles (liposomes) in aqueous solution which spontaneously form stable complexes with the DNA (pCMV-CAT). These complexes adhere to the cell surface, fuse with the cell membrane and pCMV-CAT is released into the cytoplasm. The transiently expressed CAT is detected in the cell lysate.
HeLa, human cancer epithelial cell line from the cervix, ATCC CCL 2
(§2) The composition of the test medium used for the respective cell line corresponds with that of the respective culture medium, only the content of FCS is reduced by 50% (only 5% FCS instead of 10%). […]
(§3) The CAT (chloroamphenicol acetyl transferase)-Elisa serves to quantitatively determine the CAT expression in eukaryotic cells after transfection with a plasmid that contains CAT as the reporter gene. […] Anti-CAT-DIG is detected in the third step by a peroxidase-labelled antibody against digoxigenin (Anti-DIG-POD) and visualized in a subsequent substrate reaction. […]
(§4) The microtitre plate is measured at 405 nm and a reference wavelength of 492 nm with an Elisa reader.

[2] = system: Calu cells; test: Transfection with pCMV-CAT, CAT-Elisa, Calu cells; assay type: cell-based, human; settings: relative to DOTAP = 1, pCMV-CAT plasmid
Description: as §1
CALU 1, human cancer epithelial cell line from the lung, ECACC 93120818 or another suitable test cell line
as §2, §3, §4

melting point	Compound	relative transfection efficiency in a CAT-Assay (DOTAP = 1) [1]	relative transfection efficiency in a CAT-Assay (DOTAP = 1) [2]
–	CCCCCCCCCCCCCC(=O)OCCN(CCCCNCCCN)CCOC(=O)CCCCCCCCCCCCC [Example 60, Tetradecanoic acid-2-{[4-(3-amino-propylamino)-butyl]-(2-tetradecanoyloxy-ethyl)-amino}-ethyl ester]	3.2	3.4
–	CCCCCCCCCCCCCC(=O)OCCN(CCOC(=O)CCCCCCCCCCCCC)CC1CCN(CCCN(C)C)CC1 [Example 34, Tetradecanoic acid-2-{(2-tetradecanoyloxy-ethyl)-[1-(3-dimethylamino-propyl)-piperidin-4-yl-methyl]-amino}-ethyl ester]	3.2	3.9
245 to 246 °C	CCCCCCCCCCCC(=O)OCCN(CCCNCCCN)CCOC(=O)CCCCCCCCCCC.Cl	–	–
